Values quoted from earlier work, collected in patent publication US20040084867A1, “Individualization of therapy with anticoagulants” (Xanthus Life Sciences, Inc., priority 2002, published 2004).
Like-named read-outs stand apart in the source and are kept apart here.

Experiments:
[1] = target: CYP2C9 (Homo sapiens, UniProt P11712); conditions: in vivo; cited from earlier work
[2] = test system: CYP2C9; conditions: cited from earlier work
[3] = test system: individuals with deep vein thrombosis; conditions: cited from earlier work
[4] = test system: individuals treated with warfarin; conditions: cited from earlier work

CYP2C9 (Homo sapiens, UniProt P11712), sequence (P11712 whole entry): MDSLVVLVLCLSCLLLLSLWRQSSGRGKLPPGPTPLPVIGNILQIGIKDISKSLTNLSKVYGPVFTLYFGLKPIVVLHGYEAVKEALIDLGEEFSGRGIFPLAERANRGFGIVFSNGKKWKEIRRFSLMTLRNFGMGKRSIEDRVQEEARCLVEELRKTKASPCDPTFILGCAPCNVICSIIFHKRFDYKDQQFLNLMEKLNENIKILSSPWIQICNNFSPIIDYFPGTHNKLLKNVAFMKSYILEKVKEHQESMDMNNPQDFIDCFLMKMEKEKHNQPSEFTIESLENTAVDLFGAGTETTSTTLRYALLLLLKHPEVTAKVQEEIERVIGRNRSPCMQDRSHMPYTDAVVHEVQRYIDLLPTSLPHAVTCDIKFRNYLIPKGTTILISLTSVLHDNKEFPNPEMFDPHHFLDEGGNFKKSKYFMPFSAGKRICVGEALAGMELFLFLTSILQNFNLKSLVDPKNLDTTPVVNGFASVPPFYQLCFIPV

CC(=O)CC(c1ccccc1)c1c(O)c2ccccc2oc1=O (racemic) [warfarin]
MD (maintenance dose) [1]: vs. 0.397 (*1/*1) mg/kg/wk | MD (daily maintenance dose) ([2]; 1 individual, not specified, *3/*3): 0.5 mg/day | MD (maintenance dose) ([2]; 38 Caucasian and African-American, *1/*3, *1/*2, *2/*2, CYP2A6*1/*2): MD; 0.307 (*1/*3, *1/*2, *2/*2, CYP2A6*1/*2) mg/kg/wk | MD (daily maintenance dose) ([2]; 47 Japanese, *1/*3): 1.75 mg/day | MD (daily maintenance dose) ([2]; 47 Japanese, *3/*3): 0.4 mg/day | MD (daily maintenance dose) ([2]; 52 British, *1/*2, *2/*2): 3.5 mg/day | MD (daily maintenance dose) ([2]; 52 British, *1/*3): 2.5 mg/day | share of group with at least 1 of *3 or *2 allele ([2]; 88 British, control group): 1 of *3 or *2 allele vs. only 38% of control | risks of major bleeding ([2]; 88 British, low dose group): group; ↑ risks of major bleeding in the low dose | MD (daily maintenance dose) ([2]; 94 British, CYP2C9 *1/*2): 3.8 mg/day | MD (daily maintenance dose) ([2]; 180 Caucasian, *1/*2, *2/*2): 5.2 mg/day | MD (daily maintenance dose) ([2]; 180 Caucasian, *1/*3): 3.8 mg/day | MD (daily maintenance dose) ([2]; 180 Caucasian, *2/*3): 1.8 mg/day | MD (daily maintenance dose) ([2]; 561 British, *1/*2): 4.31 mg/day | MD (daily maintenance dose) ([2]; 561 British, *1/*3): 3.97 mg/day | MD (daily maintenance dose) ([2]; 561 British, *2/*2): 3.04 mg/day | MD (daily maintenance dose) ([2]; 561 British, *2/*3): 4.09 mg/day | share of subjects homozygous for CYP2C9*1 ([2]; subjects requiring a high dose (>55 mg/week)): 83% | share of subjects heterozygous for CYP2C9*2 ([2]; subjects requiring a low dose (5-15 mg/week)): 90% | recurrence rate ([3]; Lagerstedt 1985, calf vein thrombosis, heparin 5 days then warfarin 3 months vs only heparin […] days): no recurrences | incidence of recurrence ([3]; both groups: INR 2.5 to 4.5 and INR 2.0 to 2.5): approximately 2% | effective daily doses ([4]; inter-individual range): 1 to 60 mg/day | daily dose required to maintain efficacy while avoiding side effects ([4]; varies from one individual to another): 0.5 to 60 mg
